From patent US12459951B2, “Compounds that interact with RAS superfamily proteins for treatment of cancers, inflammatory diseases, rasopathies, and fibrotic disease” (SHY Therapeutics, LLC, priority 2022, dated 2025)

What was measured:
[1] = target: T1, Rac-1 (Homo sapiens, UniProt P63000); assay: Ras GTP Binding Domain Inhibition Assay (Ras Superfamily Assay); settings: read-out: Rac-1: % inh.
T1 construct: made in house
Outline: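 Binding of 100 nM fluorescent GTP (Cy3 or Cy5, 45 min, room temperature) was read after washes from plate-captured His-tagged protein. Beforehand, compounds at 20 μM or in dilution series for IC50 sat 3 h on the protein in Tris buffer pH 7.4 or 7.0 with 1% DMSO, Sos GEF optionally added for the last hour.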

[2] = tested on: Erk1/2 phosphorylation; assay: Erk1/2 Phosphorylation Assay (western blot), Panc-1; type: cell-based, human; settings: at 10 μM, * = activation
Outline: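 KRas G12D Panc-1 cells were treated 6 h at 37° C with compound at 10 μM or serial dilutions for IC50 (0.3% DMSO). In method 1, cells were serum-starved overnight (0.5% FBS) and then given 1.5 ng/ml EGF for 15 min. In method 2, cells stayed in 10% FBS without stimulation. Lysate phospho-Erk1/2 (Thr202/Tyr204) was read by western blot.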

inhibition at 20 µM [1] | Compound | % inh of Erk1/2 phosphorylation in Panc-1 [2]
26 to 49% | COCc1noc(Nc2nc(-c3nccn3C)nn3cc(-c4ccn(C(C)C)n4)c(C)c23)n1 [Compound 82, N-(6-(1-Isopropyl-1H-pyrazol-3-yl)-5-methyl-2-(1-methyl-1H-imidazol-2-yl)pyrrolo[2,1-f][1,2,4]triazin-4-yl)-3-(methoxymethyl)-1,2,4-oxadiazol-5-amine] | A* (1-25% activation)
0% | COc1ncccc1Nc1nc(-c2nccn2C)nn2cc(-c3ccn(C(C)C)n3)c(C)c12 [Compound 85, 6-(1-Isopropyl-1H-pyrazol-3-yl)-N-(2-methoxypyridin-3-yl)-5-methyl-2-(1-methyl-1H-imidazol-2-yl)pyrrolo[2,1-f][1,2,4]triazin-4-amine] | C (50-84% inhibition)
50 to 75% | COc1nccc(Nc2nc(-c3nccn3C)nn3cc(-c4ccn(C(C)C)n4)c(C)c23)n1 [Compound 86, 6-(1-Isopropyl-1H-pyrazol-3-yl)-N-(2-methoxypyrimidin-4-yl)-5-methyl-2-(1-methyl-1H-imidazol-2-yl)pyrrolo[2,1-f][1,2,4]triazin-4-amine] | D* (85-100% activation)
1 to 25% | COc1ncncc1Nc1nc(-c2nccn2C)nn2cc(-c3ccn(C(C)C)n3)c(C)c12 [Compound 88, 6-(1-Isopropyl-1H-pyrazol-3-yl)-N-(4-methoxypyrimidin-5-yl)-5-methyl-2-(1-methyl-1H-imidazol-2-yl)pyrrolo[2,1-f][1,2,4]triazin-4-amine] | 0 (0% inhibition)
76 to 100% | Cc1c(-c2ccn(C(C)C)n2)cn2nc(-c3nccn3C)nc(Nc3ncc(C4CC4)o3)c12 [Compound 90, 5-Cyclopropyl-N-(6-(1-isopropyl-1H-pyrazol-3-yl)-5-methyl-2-(1-methyl-1H-imidazol-2-yl)pyrrolo[2,1-f][1,2,4]triazin-4-yl)oxazol-2-amine] | D* (85-100% activation)
1 to 25% | COCCO[C@H]1C[C@H](Nc2nc(-c3nccn3C)nn3cc(-c4ccn(C(C)C)n4)c(C)c23)C1 [Compound 92, 6-(1-Isopropyl-1H-pyrazol-3-yl)-N-((1r,3r)-3-(2-methoxyethoxy)cyclobutyl)-5-methyl-2-(1-methyl-1H-imidazol-2-yl)pyrrolo[2,1-f][1,2,4]triazin-4-amine] | A* (1-25% activation)

Second part, the molecule before the results:

Compound | inhibition at 20 µM [1] | % inh of Erk1/2 phosphorylation in Panc-1 [2]
Cc1c(-c2ccn(C(C)C)n2)cn2nc(-c3nccn3C)nc(Nc3nnc(C4CC4)[nH]3)c12 [Compound 81, N-(5-Cyclopropyl-4H-1,2,4-triazol-3-yl)-6-(1-isopropyl-1H-pyrazol-3-yl)-5-methyl-2-(1-methyl-1H-imidazol-2-yl)pyrrolo[2,1-f][1,2,4]triazin-4-amine] | 76 to 100% | 0 (0% inhibition)
COc1cnc(Nc2nc(-c3nccn3C)nn3cc(-c4ccn(C(C)C)n4)c(C)c23)cn1 [Compound 83, 6-(1-Isopropyl-1H-pyrazol-3-yl)-N-(5-methoxypyrazin-2-yl)-5-methyl-2-(1-methyl-1H-imidazol-2-yl)pyrrolo[2,1-f][1,2,4]triazin-4-amine] | 76 to 100% | D* (85-100% activation)
Cc1c(-c2ccn(C(C)C)n2)cn2nc(-c3nccn3C)nc(Nc3ccn(C4CC4)n3)c12 [Compound 84, N-(1-Cyclopropyl-1H-pyrazol-3-yl)-6-(1-isopropyl-1H-pyrazol-3-yl)-5-methyl-2-(1-methyl-1H-imidazol-2-yl)pyrrolo[2,1-f][1,2,4]triazin-4-amine] | 76 to 100% | D* (85-100% activation)
COc1cc(Nc2nc(-c3nccn3C)nn3cc(-c4ccn(C(C)C)n4)c(C)c23)ccn1 [Compound 87, 6-(1-Isopropyl-1H-pyrazol-3-yl)-N-(2-methoxypyridin-4-yl)-5-methyl-2-(1-methyl-1H-imidazol-2-yl)pyrrolo[2,1-f][1,2,4]triazin-4-amine] | 0% | C* (46-84% activation)
COc1cccnc1Nc1nc(-c2nccn2C)nn2cc(-c3ccn(C(C)C)n3)c(C)c12 [Compound 89, 6-(1-Isopropyl-1H-pyrazol-3-yl)-N-(3-methoxypyridin-2-yl)-5-methyl-2-(1-methyl-1H-imidazol-2-yl)pyrrolo[2,1-f][1,2,4]triazin-4-amine] | 76 to 100% | D* (85-100% activation)
Cc1c(-c2ccn(C(C)C)n2)cn2nc(-c3nccn3C)nc(Nc3cc4n(n3)CCO4)c12 [Compound 91, N-(6-(1-Isopropyl-1H-pyrazol-3-yl)-5-methyl-2-(1-methyl-1H-imidazol-2-yl)pyrrolo[2,1-f][1,2,4]triazin-4-yl)-2,3-dihydropyrazolo[5,1-b]oxazol-6-amine] | 76 to 100% | D* (85-100% activation)
